Reference: patent US20250311727A1, “SUBSTITUTED 2-AMINOAZINES AND SALTS THEREOF, AND USE THEREOF AS HERBICIDAL ACTIVE SUBSTANCES” (BAYER AKTIENGESELLSCHAFT, priority 2022, published 2025)

Key:
Assay type in all cases: in vivo
[1] = test system: Abutilon theophrasti; assay: Post-emergence herbicidal efficacy at 320 g/ha, ABUTH; settings: rated visually after about 3 weeks vs untreated controls, 100% = plants have died
Source text: (§1) Unwanted plants/weeds: • ABUTH: Abutilon theophrasti • ALOMY: Alopecurus myosuroides • AMARE: Amaranthus retroflexus • DIGSA: Digitaria sanguinalis • ECHCG: Echinochloa crus-galli • KCHSC: Kochia scoparia • LOLRI: Lolium rigidum • MATIN: Matricaria inodora • POAAN: Poa annua • POLCO: Polygonum convolvulus • SETVI: Setaria viridis • STEME: Stellaria media • VERPE: Veronica persica • VIOTR: Viola tricolor A. Post-Emergence Herbicidal Efficacy at 320 g/ha
(§2) Seeds of mono- and dicotyledonous weed plants were placed in plastic pots in sandy loam soil (doubly sown with in each case one species of mono- or dicotyledonous weed plants per pot), covered with soil and cultivated in a greenhouse under controlled growth conditions. 2 to 3 weeks after sowing, the test plants were treated at the one-leaf stage. The compounds of the invention, formulated in the form of wettable powders (WP) or as emulsion concentrates (EC), were applied to the green parts of the plants as aqueous suspension or emulsion with addition of 0.5% additive at a water application rate equivalent to 600 litres per hectare. After the test plants had been kept in the greenhouse under optimum growth conditions for about 3 weeks, the activity of the preparations was rated visually in comparison to untreated controls.
(§3) For example, 100% activity=the plants have died, 0% activity=like control plants.
(§4) Tables A1 to A10 below show the effects of selected compounds of the general formula (I) according to Table 1 on various harmful plants and at an application rate corresponding to 320 g/ha, which were obtained by the trial procedure specified above.

[2] = test system: Setaria viridis; assay: Pre-emergence herbicide efficacy at 320 g/ha, SETVI; settings: scored visually after about 3 weeks vs untreated controls, 100% = plants have died
Source text: as §1
(§5) Seeds of mono- and dicotyledonous weed plants were placed in plastic pots in sandy loam soil (doubly sown with one species each of mono- or dicotyledonous weed plants per pot) and covered with soil. The compounds of the invention, formulated in the form of wettable powders (WP) or as emulsion concentrates (EC), were then applied to the surface of the covering soil as aqueous suspension or emulsion with addition of 0.5% additive at a water application rate of 600 litres per hectare (converted). After the treatment, the pots were placed in a greenhouse and kept under good growth conditions for the test plants. After about 3 weeks, the efficacy of the preparations was scored visually in comparison with untreated controls as percentages.
as §3
(§6) Tables C1 to C12 below show the effects of selected compounds of the general formula (I) according to Table 1 on various harmful plants and at an application rate corresponding to 320 g/ha, which were obtained by the trial procedure specified above.

[3] = test system: Veronica persica; assay: Post-emergence herbicidal efficacy at 320 g/ha, VERPE; settings: rated visually after about 3 weeks vs untreated controls, 100% = plants have died
Source text: as §1, §2, §3, §4

[4] = test system: Amaranthus retroflexus; assay: Pre-emergence herbicide efficacy at 320 g/ha, AMARE; settings: scored visually after about 3 weeks vs untreated controls, 100% = plants have died
Source text: as §1, §5, §3, §6

[5] = test system: Amaranthus retroflexus; assay: Post-emergence herbicidal efficacy at 320 g/ha, AMARE; settings: rated visually after about 3 weeks vs untreated controls, 100% = plants have died
Source text: as §1, §2, §3, §4

[6] = test system: Stellaria media; assay: Post-emergence herbicidal efficacy at 320 g/ha, STEME; settings: rated visually after about 3 weeks vs untreated controls, 100% = plants have died
Source text: as §1, §2, §3, §4

[7] = test system: Kochia scoparia; assay: Post-emergence herbicidal efficacy at 320 g/ha, KCHSC; settings: rated visually after about 3 weeks vs untreated controls, 100% = plants have died
Source text: as §1, §2, §3, §4

[8] = test system: Amaranthus retroflexus; assay: Post-emergence herbicidal efficacy at 80 g/ha, AMARE; settings: rated visually after about 3 weeks vs untreated controls, 100% = plants have died
Source text: as §1
(§7) Seeds of monocotyledonous and dicotyledonous weeds and crop plants were placed in sandy loam in plastic or organic planting pots, covered with soil and cultivated in a greenhouse under controlled growth conditions. 2 to 3 weeks after sowing, the test plants were treated at the one-leaf stage. The compounds of the invention, formulated in the form of wettable powders (WP) or as emulsion concentrates (EC), were then sprayed onto the green parts of the plants as aqueous suspension or emulsion with addition of 0.5% additive at a water application rate of 600 l/ha (converted). After the test plants had been kept in the greenhouse under optimum growth conditions for about 3 weeks, the activity of the preparations was rated visually in comparison to untreated controls. For example, 100% activity=the plants have died, 0% activity=like control plants.
(§8) Tables B1 to B11 below show the effects of selected compounds of the general formula (I) according to Table 1 on various harmful plants and an application rate corresponding to 80 g/ha, which were obtained by the experimental procedure mentioned above.

[9] = test system: Stellaria media; assay: Pre-emergence herbicide efficacy at 320 g/ha, STEME; settings: scored visually after about 3 weeks vs untreated controls, 100% = plants have died
Source text: as §1, §5, §3, §6

[10] = test system: Digitaria sanguinalis; assay: Pre-emergence herbicide efficacy at 320 g/ha, DIGSA; settings: scored visually after about 3 weeks vs untreated controls, 100% = plants have died
Source text: as §1, §5, §3, §6

[11] = test system: Veronica persica; assay: Pre-emergence herbicide efficacy at 320 g/ha, VERPE; settings: scored visually after about 3 weeks vs untreated controls, 100% = plants have died
Source text: as §1, §5, §3, §6

[12] = test system: Poa annua; assay: Pre-emergence herbicide efficacy at 320 g/ha, POAAN; settings: scored visually after about 3 weeks vs untreated controls, 100% = plants have died
Source text: as §1, §5, §3, §6

[13] = test system: Echinochloa crus-galli; assay: Post-emergence herbicidal efficacy at 320 g/ha, ECHCG; settings: rated visually after about 3 weeks vs untreated controls, 100% = plants have died
Source text: as §1, §2, §3, §4

[14] = test system: Kochia scoparia; assay: Pre-emergence herbicide efficacy at 320 g/ha, KCHSC; settings: scored visually after about 3 weeks vs untreated controls, 100% = plants have died
Source text: as §1, §5, §3, §6

[15] = test system: Veronica persica; assay: Post-emergence herbicidal efficacy at 80 g/ha, VERPE; settings: rated visually after about 3 weeks vs untreated controls, 100% = plants have died
Source text: as §1, §7, §8

Compound	Post-emergence efficacy at 320 g/ha against ABUTH in % [1] [%]	Pre-emergence efficacy at 320 g/ha against SETVI in % [2] [%]	Post-emergence efficacy at 320 g/ha against VERPE in % [3] [%]	Pre-emergence efficacy at 320 g/ha against AMARE in % [4] [%]	Post-emergence efficacy at 320 g/ha against AMARE in % [5] [%]	Post-emergence efficacy at 320 g/ha against STEME in % [6] [%]	Post-emergence efficacy at 320 g/ha against KCHSC in % [7] [%]	Pre-emergence efficacy at 320 g/ha against DIGSA in % [10] [%]	also measured
FC(F)(F)CCCc1ccccc1Nc1ncc(Cl)cn1 [Example 1-1]	90	90	90	90	90				
Fc1cnc(Nc2ccccc2SCCCC(F)(F)F)nc1 [Example 1-7]	90		100	90	100	90	90		
N#Cc1c(Cl)ccc(Nc2ncc(Cl)cn2)c1-n1cc(C(F)(F)F)cn1 [Example 1-43]					100		100		Post-emergence efficacy at 80 g/ha against AMARE in % [8]: 90%
Cc1ccc(Nc2ncc(Cl)cn2)c(-n2cc(C(F)(F)F)cn2)c1C#N [Example 1-45]									Pre-emergence efficacy at 320 g/ha against STEME in % [9]: 100%
Cc1ccc(Nc2ncc(F)cn2)c(-n2cc(C(F)(F)F)cn2)c1C#N [Example 1-46]			90		90			90	
Cc1cccc(Nc2ncc(Cl)cn2)c1-n1cc(C(F)(F)F)cn1 [Example 1-49]	90	100	90	100	90	90		90	Pre-emergence efficacy at 320 g/ha against VERPE in % [11]: 100%; Pre-emergence efficacy at 320 g/ha against POAAN in % [12]: 100%; Post-emergence efficacy at 320 g/ha against ECHCG in % [13]: 90%
N#Cc1cccc(Nc2ncc(Cl)cn2)c1-n1cccn1 [Example 1-64]		100	90	100	100	90	100	90	Pre-emergence efficacy at 320 g/ha against KCHSC in % [14]: 90%
COCc1cnn(-c2c(C#N)cccc2Nc2ncc(F)cn2)c1 [Example 1-69]	90	90	100	100	100	100			Pre-emergence efficacy at 320 g/ha against STEME in % [9]: 100%
N#Cc1cccc(Nc2ncc(Cl)cn2)c1-n1cc(Cl)cn1 [Example 1-72]		90	90	100	100		90	90	Pre-emergence efficacy at 320 g/ha against KCHSC in % [14]: 90%; Pre-emergence efficacy at 320 g/ha against VERPE in % [11]: 90%
FC(F)c1cc(-c2c(Cl)cccc2Nc2ccc(Cl)cn2)on1 [Example 1-74]									Post-emergence efficacy at 80 g/ha against VERPE in % [15]: 80%; Post-emergence efficacy at 80 g/ha against AMARE in % [8]: 80%
Fc1cnc(Nc2ccccc2-n2cc(C(F)(F)F)cn2)nc1 [Example 1-77]									Post-emergence efficacy at 80 g/ha against VERPE in % [15]: 80%
Cc1cc(C)c(-c2cc(C(F)F)no2)c(Nc2ncc(Cl)cn2)n1 [Example 2-4]						100	90		Pre-emergence efficacy at 320 g/ha against STEME in % [9]: 90%
